Data from patent US20240059703A1 (AMGEN INC., priority 2021, published 2024).
Where two headings read alike, the source gives them in different places.

Key:
[1] = tested on: MIA PaCa-2 (human pancreatic carcinoma) cells; assay: Cell Viability Assay (CellTiter-Glo), MIA PaCa-2; format: cell-based
Experimental: Serially-diluted compound or DMSO was added to the cells, and plates were incubated at 37° C., 5% CO2 for 72 h. Cell viability was measured using a CellTiter-Glo® Luminescent Cell Viability Assay kit (Promega) according to the manufacturer's protocol. The luminescence signal of treated samples was normalized to DMSO control, and data were analyzed using a 4-parameter logistic model to calculate IC50 values.

[2] = tested on: A549 (human lung carcinoma) cells; assay: Cell Viability Assay (CellTiter-Glo), A549; format: cell-based
Outline: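 Luminescent ATP read-out (CellTiter-Glo) after 72 h compound treatment of cells seeded overnight at 1.67E+04 cells/mL in RPMI 1640, 10% FBS; signal relative to DMSO, IC50 by 4-parameter logistic model.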

KRAS G12C = KRAS G12C (Homo sapiens (Human), UniProt P01116, C118A/G12C); assay: 2 h coupled exchange assay; format: biochemical
Experimental: The term “2 h coupled exchange assay” or “20 h coupled exchange assay” as used herein refers to the assay described in the Section entitled “BIOLOGICAL EVALUATION.”

[3] = Avg 2 h Coupled exchange IC50, 2 h compound pre-incubation, SOS-mediated nucleotide exchange
[4] = Avg 2 h Coupled exchange IC50, 2 h compound pre-incubation

Compound	IC50 ([1]; Homo sapiens, MIA PaCa-2, 72 h) [nM]	IC50 ([2]; Homo sapiens, A549, 72 h) [nM]	IC50 (KRAS G12C; [3]) [nM]	IC50 (KRAS G12C; [4]) [nM]	IC50 ([1]; 72 h) [nM]	IC50 ([2]; 72 h) [nM]	IC50 (KRAS G12C; read-out: Avg 2 h Coupled exchange IC50, 2 h compound pre-incubation, SOS-mediated nucleotide exchange) [nM]
C=CC(=O)N1CC2(CCN(c3nc4c(c(-c5c(Cl)ccc6[nH]ncc56)c3C#N)CCC(C)(C)C4)C2)C1 [Example 13-144, 4-(5-chloro-1H-indazol-4-yl)-7,7-dimethyl-2-(2-(2-propenoyl)-2,6-diazaspiro[3.4]octan-6-yl)-5,6,7,8-tetrahydro-3-quinolinecarbonitrile]	172	3800	41	–	–	–	–
C=CC(=O)N1CC2(CCN(c3nc4c(c(-c5cccc(C)c5C)n3)CCCC4)C2)C1 [Example 1-26, 1-(6-(4-(2,3-dimethylphenyl)-5,6,7,8-tetrahydro-2-quinazolinyl)-2,6-diazaspiro[3.4]octan-2-yl)-2-propen-1-one]	9820	13800	3980	–	–	–	–
C=CC(=O)N1CC2(CCN(c3nc4c(c(-c5ccc(F)c6sc(N)nc56)c3C)COC(C)(C)C4)C2)C1 (single isomer, unassigned) [Example 14-38, (P)-1-(6-(4-(2-amino-7-fluoro-1,3-benzothiazol-4-yl)-3,7,7-trimethyl-7,8-dihydro-5H-pyrano[4,3-b]pyridin-2-yl)-2,6-diazaspiro[3.4]octan-2-yl)-2-propen-1-one]	123	> 5000	–	63	–	–	–
C=CC(=O)N1CC2(CCN(c3nc4c(c(-c5c(C)ccc6[nH]ncc56)c3F)C[C@H]3C[C@@H]4C3(C)C)C2)C1 [Example 14-72, 1-(6-((1R,9R)-5-fluoro-10,10-dimethyl-6-(5-methyl-1H-indazol-4-yl)-3-azatricyclo[7.1.1.0^2,7]undeca-2,4,6-trien-4-yl)-2,6-diazaspiro[3.4]octan-2-yl)-2-propen-1-one]	24	> 5000	–	30	–	–	–
C=CC(=O)N1CC2(CCN(c3nc4c(c(-c5c(C)ccc6[nH]ncc56)c3C)COC(C)(C)C4)C2)C1 [Example 14-23, 1-(6-(3,7,7-trimethyl-4-(5-methyl-1H-indazol-4-yl)-7,8-dihydro-5H-pyrano[4,3-b]pyridin-2-yl)-2,6-diazaspiro[3.4]octan-2-yl)-2-propen-1-one]	18	> 5000	–	102	–	–	–
C=CC(=O)N1CC2(CCN(c3nc4c(c(-c5c(C)ccc6cnn(C)c56)c3C)CCC(C)(C)C4)C2)C1 [Example 2-19, 1-(6-(4-(1,6-dimethyl-1H-indazol-7-yl)-3,7,7-trimethyl-5,6,7,8-tetrahydro-2-quinolinyl)-2,6-diazaspiro[3,4]octan-2-yl)-2-propen-1-one]	392	> 5000	104	–	–	–	–
C=CC(=O)N1CC2(CCN(c3nc4c(c(-c5c(C)ccc6[nH]ncc56)c3C#N)C[C@H]3C[C@@H]4C3(C)C)C2)C1 (single isomer, unassigned) [Example 13-115]	9	> 5000	12	–	–	–	–
C=CC(=O)N1CC2(CCN(c3cc4c(c(-c5c(C)ccc6cnn(C)c56)c3C#N)COCC4)C2)C1 [Example 2-96, 8-(1,6-dimethyl-1H-indazol-7-yl)-6-(2-(2-propenoyl)-2,6-diazaspiro[3,4]octan-6-yl)-3,4-dihydro-1H-2-benzopyran-7-carbonitrile]	246	> 5000	232	–	–	–	–
7,7-dimethyl-4-(5-methyl-1H-indazol-4-yl)-2-(2-((^2H3)-2-propenoyl)-2,6-diazaspiro[3.4]octan-6-yl)-5,6,7,8-tetrahydro-3-quinolinecarbonitrile [Example 13-1]	–	–	–	–	65	4890	36
C=CC(=O)N1CC2(CCN(c3nc4c(c(-c5cccc6cc(O)ccc56)c3C)CCC(C)(C)C4)C2)C1 [Example 2-13, 1-(6-(4-(6-hydroxy-1-naphthalenyl)-3,7,7-trimethyl-5,6,7,8-tetrahydro-2-quinolinyl)-2,6-diazaspiro[3.4]octan-2-yl)-2-propen-1-one]	403	> 5000	150	–	–	–	–
C=CC(=O)N1CC2(CCN(c3nc4cc(OC)ccc4c(-c4c(C)ccc5[nH]ncc45)c3C#N)C2C)C1 [Example 14-21, 7-methoxy-4-(5-methyl-1H-indazol-4-yl)-2-((5R)-5-methyl-2-(2-propenoyl)-2,6-diazaspiro[3.4]octan-6-yl)-3-quinolinecarbonitrile|7-methoxy-4-(5-methyl-1H-indazol-4-yl)-2-((5S)-5-methyl-2-(2-propenoyl)-2,6-diazaspiro[3.4]octan-6-yl)-3-quinolinecarbonitrile]	447	> 5000	–	111	–	–	–
Cc1ccc2[nH]ncc2c1-c1c(C#N)c(N2CCC3(CN(C(=O)/C=C/CN(C)C)C3)C2)nc2c1CCC(C)(C)C2 [Example 13-2, 2-(2-((2E)-4-(dimethylamino)-2-butenoyl)-2,6-diazaspiro[3.4]octan-6-yl)-7,7-dimethyl-4-(5-methyl-1H-indazol-4-yl)-5,6,7,8-tetrahydro-3-quinolinecarbonitrile]	366	3700	61	–	–	–	–
C=CC(=O)N1CC2(CCN(c3nc4c(c(-c5c(F)ccc6[nH]ncc56)c3C)CCN(C(C)C)C4)C2)C1 [Example 18-15, 1-(6-(4-(5-fluoro-1H-indazol-4-yl)-3-methyl-7-(2-propanyl)-5,6,7,8-tetrahydro-1,7-naphthyridin-2-yl)-2,6-diazaspiro[3.4]octan-2-yl)-2-propen-1-one]	230	> 25000	–	720	–	–	–

The remaining lines, values ahead:

IC50 ([1]; Homo sapiens, MIA PaCa-2, 72 h) [nM]	IC50 ([2]; Homo sapiens, A549, 72 h) [nM]	IC50 (KRAS G12C; [3]) [nM]	IC50 (KRAS G12C; [4]) [nM]	IC50 ([1]; 72 h) [nM]	IC50 ([2]; 72 h) [nM]	IC50 (KRAS G12C; read-out: Avg 2 h Coupled exchange IC50, 2 h compound pre-incubation, SOS-mediated nucleotide exchange) [nM]	Compound
34	> 5000	–	76	–	–	–	C=CC(=O)N1CC2(CCN(c3cc4c(c(-c5c(C)ccc6[nH]ncc56)c3Cl)OCCC4)C2)C1 [Example 31-1, 1-(6-(7-chloro-8-(5-methyl-1H-indazol-4-yl)-3,4-dihydro-2H-chromen-6-yl)-2,6-diazaspiro[3.4]octan-2-yl)-2-propen-1-one]
337	9840	–	136	–	–	–	C=CC(=O)N1CC2(CCN(c3nc4c(c(-c5ccc(F)cc5F)c3C#N)CCN(c3scnc3C)C4)[C@@H]2C)C1 [Example 21-17, 4-(2,4-difluorophenyl)-2-((5R)-5-methyl-2-(2-propenoyl)-2,6-diazaspiro[3.4]octan-6-yl)-7-(4-methyl-1,3-thiazol-5-yl)-5,6,7,8-tetrahydro-1,7-naphthyridine-3-carbonitrile]
–	–	–	551	1690	13000	–	C=CC(=O)N1CC2(CCN(c3nc4c(c(-c5ncccc5C)c3C#N)CCC(c3scnc3C)=C4)C2)C1 (single isomer, unassigned) [Example 23-26, (M)-4-(3-methyl-2-pyridinyl)-7-(4-methyl-1,3-thiazol-5-yl)-2-(2-(2-propenoyl)-2,6-diazaspiro[3.4]octan-6-yl)-5,6-dihydro-3-quinolinecarbonitrile]
1910	12400	–	103	–	–	–	C=CC(=O)N1CC2(CCN(c3nc4c(c(-c5cc(C(F)F)ccc5Cl)c3C#N)CCN(c3scnc3C)C4)C2)C1 [Example 23-61, 4-(2-chloro-5-(difluoromethyl)phenyl)-7-(4-methyl-1,3-thiazol-5-yl)-2-(2-(2-propenoyl)-2,6-diazaspiro[3.4]octan-6-yl)-5,6,7,8-tetrahydro-1,7-naphthyridine-3-carbonitrile]
1610	10100	–	85	–	–	–	C=CC(=O)N1CC2(CCN(c3nc4c(c(-c5ccccc5F)c3C#N)CCN(c3scnc3C)C4C)C2)C1 [Example 21-4, (8R)-4-(2-fluorophenyl)-8-methyl-7-(4-methyl-1,3-thiazol-5-yl)-2-(2-(2-propenoyl)-2,6-diazaspiro[3.4]octan-6-yl)-5,6,7,8-tetrahydro-1,7-naphthyridine-3-carbonitrile (8S)-4-(2-fluorophenyl)-8-methyl-7-(4-methyl-1,3-thiazol-5-yl)-2-(2-(2-propenoyl)-2,6-diazaspiro[3.4]octan-6-yl)-5,6,7,8-tetrahydro-1,7-naphthyridine-3-carbonitrile]
190	> 5000	–	25	–	–	–	C=CC(=O)N1CC2(CCN(c3nc4c(c(-c5ccc(F)cc5F)c3C#N)CCN(c3scnc3C)C4)C2)C1 [Example 21-3, 4-(2,4-difluorophenyl)-7-(4-methyl-1,3-thiazol-5-yl)~2-(2-(2-propenoyl)-2,6-diazaspiro[3.4]octan-6-yl)-5,6,7,8-tetrahydro-1,7-naphthyridine-3~carbonitrile]
> 5000	> 5000	–	222	–	–	–	C=CC(=O)N1CC2(CCN(c3nc4c(c(-c5cc(O)ccc5Cl)n3)CCC(c3scnc3C)C4)C2)C1 [Example 22-4, 1-(6-((7R)-4-(2-chloro-5-hydroxyphenyl)-7-(4-methyl-1,3-thiazol-5-yl)-5,6,7,8-tetrahydro-2-quinazolinyl)-2,6-diazaspiro[3.4]octan-2-yl)-2-propen-1-one| 1-(6-((7S)-4-(2-chloro-5-hydroxyphenyl)-7-(4-methyl-1,3-thiazol-5-yl)-5,6,7,8-tetrahydro-2-quinazolinyl)-2,6-diazaspiro[3.4]octan-2-yl)-2-propen-1-one]
